Patent US6809109B2, “2, 4-disubstituted-pyridine N-oxides useful as HIV reverse transcriptase inhibitors” (Bristol-Myers Squibb Company, priority 2002, dated 2004)
Converted amounts (≈) assume the structure as drawn.

System: HIV-1 (RF)
Test: HIV RNA assay, microplate based compound evaluation in HIV-1 infected MT-2 cells
Type: cell-based
Conditions: Human immunodeficiency virus 1, MT2, 72 h; HIV-1 (RF) infected MT-2 cells, 3 days of culture; value used to standardize the virus inoculum; read-out: IC90 (concentration of compound required to reduce the HIV RNA level by 90%)
Procedure: Plasmid pDAB 72 containing both gag and pol sequences of BH10 (bp 113-1816) cloned into PTZ 19R was prepared according to Erickson-Viitanen et al. AIDS Research and Human Retroviruses 1989, 5, 577. The plasmid was linearized with Bam HI prior to the generation of in vitro RNA transcripts using the Riboprobe Gemini system II kit (Promega) with T7 RNA polymerase. Synthesized RNA was purified by treatment with RNase free DNAse (Promega), phenol-chloroform extraction, and ethanol precipitation. RNA transcripts were dissolved in water, and stored at −70° C. The concentration of RNA was determined from the A260.
Biotinylated capture probes were purified by HPLC after synthesis on an Applied Biosystems (Foster City, Calif.) DNA synthesizer by addition of biotin to the 5′ terminal end of the oligonucleotide, using the biotin-phosphoramidite reagent of Cocuzza, Tet. Lett. 1989, 30, 6287. […]
MT-2 and MT-4 cells were maintained in RPMI 1640 supplemented with 5% fetal calf serum (FCS) for MT-2 cells or 10% FCS for MT-4 cells, 2 mM L-glutamine and 50 μg/mL gentamycin, all from Gibco. […] Infectious titers of HIV-1(RF) stocks were 1-3×10^7 PFU (plaque forming units)/mL as measured by plaque assay on MT-2 cells (see below). […]

Nc1ccn([C@H]2CC[C@@H](CO)O2)c(=O)n1 [ddC, dideoxycytidine]
IC90: 0.2 µg/mL (≈ 0.947 µM)
